Experiments:
[1] = system: multidrug resistant strain of Acinetobacter baumannii; test: Disk diffusion susceptibility method, MDR Acinetobacter baumannii isolate; type: cell-based; details: isolated MDR strain from patients with Type 2 Diabetes Mellitus; disks with 20 μl antibiotic composition, 10 μg colistin or 15 μg Tigecycline; 2 hours at 4° C., then 37° C.
Experimental: (§1) The antibiotic composition was tested using the disk diffusion susceptibility method previously published by Bauer et al. (Bauer, A. W., et al., “Antibiotic susceptibility testing by a standardized single disk method,” Amer J Clin Pathol 45: pp. 495-496 ([…])). Briefly, a multidrug resistant strain of Acinetobacter baumannii was isolated from patients with Type 2 Diabetes Mellitus in a hospital setting in Saudi Arabia. Whatman No. 1 sterilized-paper disks were saturated with 20 μl of the antibiotic composition. Disks were then dried and placed on the surface of a medium inoculated with either the isolated MDR Acinetobacter baumannii or Acinetobacter baumannii (ATCC17978). A further test was run using either 10 μg colistin or 15 μg Tigecycline as controls. The plates containing the inoculated medium were kept for 2 hours at 4° C. to ensure the diffusion of the bioactive material, and then were incubated at 37° C. Disks containing 30 μl of water were used as a negative control.

[2] = system: Acinetobacter baumannii (ATCC17978); test: Disk diffusion susceptibility method, Acinetobacter baumannii ATCC17978; type: cell-based; details: disks with 20 μl antibiotic composition, 10 μg colistin or 15 μg Tigecycline, 2 hours at 4° C., then 37° C.
Experimental: as §1

Molecule | zones of inhibition [1] | zones of inhibition [2]
colistin | not around the traditional antibiotic controls | not around the traditional antibiotic controls
CN(C)c1cc(NC(=O)CNC(C)(C)C)c(O)c2c1C[C@H]1C[C@H]3[C@H](N(C)C)C(O)=C(C(N)=O)C(=O)[C@@]3(O)C(O)=C1C2=O [Tigecycline] | not around the traditional antibiotic controls | not around the traditional antibiotic controls
